Measured values published in patent US8012711B2, “Methods of screening for compounds that reduce microbial resistance to fluoroquinolones” (priority 1999, dated 2011).
In brackets after ≈: the same amount, converted by molar mass. Where two headings read alike, the source gives them in different places.

Columns and labels:
[1] = test system: Escherichia coli K-12 AG100, its Mar mutant AG112 and derived fluoroquinolone-resistant mutants (acrAB+); assay: MIC by broth microdilution, acrAB+ strains; assay type: cell-based; conditions: Escherichia coli
Experimental: Selection of fluoroquinolone-resistant mutants. 1-AG100, 2°-AG100, 3*-AG100, 4*-AG100 and 1′-AG112, 2′-AG112, 3′-AG112 were sequential step mutants derived from AG 100 and AG112, respectively, on solid media. For each step, about 10^11 cells of an overnight culture were plated on several LB agar plates supplemented with increasing concentrations of OFL. Single colonies were further purified on OFL-supplemented agar plates. Mutant 2°-AG100 came out of one series, while mutants 3*- and 4*-AG100 came from a second series.
(§1) Susceptibility testing. MICs of selected antimicrobial agents were determined by a standard broth microdilution procedure with cation-adjusted Mueller-Hinton broth (Becton Dickinson, Cockeysville, Md.) and an inoculum of 5×10^5 CFU/ml according to NCCLS performance and interpretive guidelines (NCCLS. 1997. Methods for dilution antimicrobial susceptibility. Tests for bacteria that grow aerobically—Fourth Edition; Approved Standard. NCCLS document M7-A4 (ISBN 1-56238-309-4). NCCLS, 940 West Valley Road, Suite 1400, Wayne, Pa. 19087). Antimicrobial agents on the commercially available microtiter plates (Merlin Diagnostics GmbH, Bornheim, Germany) included the FQs ciprofloxacin (CIP), enoxacin, fleroxacin, nor-flo-xacin, ofloxacin (OFL), pefloxacin, sparfloxacin (SPX), and trovafloxacin (TVA). They also included tetracycline (TET), chloramphenicol (CML), trimethoprim (TMP), cefoxitin (CFOX), cefaclor, cefixim and loracarbef. MICs of bile salts were determined by a broth macrodilution procedure: sodium cholate and sodium deoxycholate were serially diluted twofold in LB broth and tubes inoculated at 5×10^5 CFU/ml. MICs of both antibiotics and bile salts were determined twice in independent experiments with reproducible results.

[2] = test system: Escherichia coli AG100, AG112 and derived fluoroquinolone-resistant mutants with ΔacrAB; assay: MIC by broth microdilution, AcrAB-deleted strains; assay type: cell-based; conditions: Escherichia coli
Experimental: as §1
P1 transduction. […] DNA sequencing.

[3] = test system: E. coli; conditions: cited from earlier work
[4] = strain 1-AG100, acrAB+, read-out: MIC
[5] = strain 1-AG112 (1′-AG112), acrAB+, read-out: MIC
[6] = strain 2-AG100 (2°-AG100), acrAB+, read-out: MIC
[7] = strain 2-AG112 (2′-AG112), acrAB+, read-out: MIC
[8] = strain 3*-AG100, acrAB+, read-out: MIC
[9] = strain 3-AG112 (3′-AG112), acrAB+, read-out: MIC
[10] = strain 4*-AG100, acrAB+, read-out: MIC
[11] = strain AG100, acrAB+, read-out: MIC
[12] = strain AG112 (Mar mutant), acrAB+
[13] = strain 1-AG112 (1′-AG112), ΔacrAB
[14] = strain 2-AG100 (2°-AG100), ΔacrAB
[15] = strain 2-AG112 (2′-AG112), ΔacrAB
[16] = strain 3-AG112 (3′-AG112), ΔacrAB

Structure (SMILES)	MIC [1, 4] [µg/mL]	MIC [1, 5] [µg/mL]	MIC [1, 6] [µg/mL]	MIC [1, 7] [µg/mL]	MIC [1, 8] [µg/mL]	MIC [1, 9] [µg/mL]	MIC [1, 10] [µg/mL]	MIC [1, 11] [µg/mL]	MIC [1, 12] [µg/mL]	MIC ([2]; strain 1-AG100, ΔacrAB) [µg/mL]	MIC [2, 13] [µg/mL]	MIC [2, 14] [µg/mL]	MIC [2, 15] [µg/mL]	MIC ([2]; strain 3*-AG100, ΔacrAB) [µg/mL]	MIC [2, 16] [µg/mL]	MIC ([2]; strain 4*-AG100, ΔacrAB) [µg/mL]	MIC ([2]; strain AG100, ΔacrAB) [µg/mL]	MIC ([2]; strain AG112, ΔacrAB) [µg/mL]	other results
C[C@@H]1CN(c2c(F)c(N)c3c(=O)c(C(=O)O)cn(C4CC4)c3c2F)C[C@H](C)N1 [SPX, sparfloxacin]	0.125 (≈ 0.319 µM)	0.25 (≈ 0.637 µM)	0.25 (≈ 0.637 µM)	1 (≈ 2.55 µM)	0.5 (≈ 1.27 µM)	2 (≈ 5.1 µM)	2 (≈ 5.1 µM)	≤ 0.015	0.06 (≈ 0.153 µM)	≤ 0.015	≤ 0.015	≤ 0.015	≤ 0.015	≤ 0.015	≤ 0.015	≤ 0.015	≤ 0.015	≤ 0.015	MIC ([2]; all ΔacrAB mutants, below detection): < 0.015 µg/mL
CN(C)[C@@H]1C(O)=C(C(N)=O)C(=O)[C@@]2(O)C(O)=C3C(=O)c4c(O)cccc4[C@@](C)(O)[C@H]3C[C@@H]12 [TET, tetracycline]	2 (≈ 4.5 µM)	4 (≈ 9 µM)	2 (≈ 4.5 µM)	16 (≈ 36 µM)	8 (≈ 18 µM)	8 (≈ 18 µM)	8 (≈ 18 µM)	1 (≈ 2.25 µM)	4 (≈ 9 µM)	1 (≈ 2.25 µM)	0.5 (≈ 1.13 µM)	0.5 (≈ 1.13 µM)	1 (≈ 2.25 µM)	1 (≈ 2.25 µM)	0.5 (≈ 1.13 µM)	1 (≈ 2.25 µM)	0.5 (≈ 1.13 µM)	1 (≈ 2.25 µM)	
N[C@@H]1[C@H]2CN(c3nc4c(cc3F)c(=O)c(C(=O)O)cn4-c3ccc(F)cc3F)C[C@@H]12 [TVA, trovafloxacin]	0.25 (≈ 0.6 µM)	0.5 (≈ 1.2 µM)		1 (≈ 2.4 µM)	0.5 (≈ 1.2 µM)	2 (≈ 4.8 µM)	2 (≈ 4.8 µM)	0.06 (≈ 0.144 µM)	0.125 (≈ 0.3 µM)	0.06 (≈ 0.144 µM)	0.06 (≈ 0.144 µM)	0.06 (≈ 0.144 µM)	0.06 (≈ 0.144 µM)	0.06 (≈ 0.144 µM)	0.06 (≈ 0.144 µM)	0.125 (≈ 0.3 µM)	≤ 0.03	≤ 0.03	MIC ([1]; strain 2-AG100 (2°-AG100), acrAB+): 0.25 µg/mL (≈ 0.6 µM)
Oc1cc(Cl)ccc1Oc1ccc(Cl)cc1Cl [triclosan]																			Reduction of resistance to triclosan ([3]; deletion of acrAB, all strains): 10 fold; Increase of resistance to triclosan ([3]; mutation in enoyl reductase (fabI)): about 100 fold; Increase of resistance to triclosan ([3]; overexpression of acrAB, marA, or soxS): about two-fold
